Two compounds from patent US6538028B1, “Method for inhibiting complement activation” (Vanderbilt University, priority 2000, dated 2003) can be followed below.

In experiment [1] the test system is piglet lungs perfused with human blood. How it is done: […] piglets (4-6 kg) were used in an established in situ ex vivo isolated lung perfusion model. Piglet lungs were perfused with unmodified human blood or blood treated with either aurintricarboxylic acid (ATA, 0.5 mg/mL; GPIb inhibitor), SC52012A (SC, 0.2 μg/mL; GPIIb/IIIa antagonist, G.D. Searle & Co. of Chicago, Ill.), or both. Thus, experimental groups received either 500 mg of ATA, 200 μg of SC52012A, or both drugs added to fresh human blood perfusate (pooled from three donors) prior to lung perfusion, while control groups received unmodified blood.
Pulmonary vascular resistance (PVR) was calculated from pulmonary artery land vein pressures and flow. Pulmonary vein effluent was collected serially for comparison of complement activation (C3a), mast cell activation (histamine) and thromboxane production (TXB2) between groups. Survival endpoints were loss of transpulmonary flow, loss of oxygenation across the lungs, frank tracheal edema, and loss of perfusate volume (˜1L) into lung parenchyma.

Experiment [2] deals with piglet lungs perfused with heparinized human blood. The method, then:
In an established in situ, ex vivo model, piglet lungs were perfused with either heparinized (3,000 U/L) human blood or with blood additionally pretreated with 140 mg/L of bivalirudin (a semisynthetic analogue of hirudin). Pulmonary vein effluent was collected serially for measurement of complement activation (C3a), mast cell activation (histamine), and thrombin formation (F1+2). Survival endpoints were loss of transpulmonary blood flow, loss of oxygenation across the lungs, and sequestration of perfusate volume (˜1 L) into the lung. Statistical comparisons were made using the 2-tailed t-test.

Another experiment has as its system complement (C3a, C5b-9). The conditions noted are these: for C3a Mean: mean of two samples; for C3a / C5b-9: single sample. The method, then: Platelet poor plasma (PPP—Example 4) and platelet rich plasma (PRP—Example 5) was prepared from human heparinized blood. Human plasma was treated with ATA (0.5 mg/ml), SC (0.5 μg/ml), ATA+SC, bivalirudin (HIRULOG®, 0.1 g/L), or water (negative control) and then incubated in presence of zymosan (10 mg/mL) or cobra venom factor (CVF, 1 or 5 U/mL) to activate complement (negative control is water), for one hour at 37° C. with shaking. Then, the samples were subjected to centrifugation at 10,000 g for 45 minutes. The supernatant was then frozen in small aliquots at −70° C. C3a and C5b-9 levels were then assayed using commercial ELISA kits (Quidel).

Setting [3] is: PPP, CVF 1U, listed as HIRULOG ®.

Values joined by “and” are separate entries in the source; they are usually repeats but may differ in a detail not shown here. Equal entries are not always repeated. Where two headings read alike, the source gives them in different places. Marks after values point to notes of the source that are not given here.

As to `O=C(O)C1=CC(=C(c2ccc(O)c(C(=O)O)c2)c2ccc(O)c(C(=O)O)c2)C=CC1=O` [ATA, aurintricarboxylic acid], the “ΔC3a, 1 min, μg/mL (Mean ± SEM)” value in experiment [1] (1 min, pulmonary vein effluent) is recorded as 0.30* μg/mL. Also, in experiment [1] (10 min, controls 89%), the “Platelet sequestration at 10 min” value turned out to be 51%. Moreover, the “ΔC3a, 10 min, μg/mL (Mean ± SEM)” value in experiment [1] (10 min, pulmonary vein effluent) turned out to be 1.81 µg/mL. The compound also had a median survival in experiment [1] (control 12 min) of 25 min. Also, the “Median Survival in min (95% conf int)” value in experiment [1] (pig lung perfused with human blood, ATA 0.5 mg/mL, SC 0.2 μg/mL) is on record as 25* min.

Consider bivalirudin, for which the “thrombin production limited (as measured by F1+2)” value in experiment [2] is on record as “more than 90%”. For the same compound, the “ΔC3a 1 min μg/ml (± SEM)” value in experiment [2] (1 min) is given as 0.82 (0.8)* μg/ml. In addition, the “PVR cm H2O/mL/min 5 min (± SEM)” value in experiment [2] (5 min) was 0.16 (.05)* cm H2O/mL/min. For the same compound, in experiment [2] (10 min), the “Δ histamine 10 min nM (± SEM)” value was 21 (4)* nM and the “ΔC3a 10 min μg/ml (± SEM)” value was 1.97 (1) μg/ml. The “ΔF1 + 2 10 min nM (± SEM)” value in experiment [2] (10 min, thrombin formation) is given as 0.5 (0.8)* nM. Moreover, the “Survival Min (± SEM)” value in experiment [2] (bivalirudin 140 mg/L in heparinized human blood) is given as 77 (22)* Min. The compound also registered a mean survival in experiment [2] (control 8 minutes) of 77 min. Besides, in experiment [2] (in words), the Complement activation entry was “significantly blunted”, the histamine release entry is “significantly decreased”, the intrapulmonary platelet sequestration entry is “significantly blunted” and the “rise in PVR” value is reported as “significantly decreased”. Besides, in the experiment with complement (C3a, C5b-9) (PPP, CVF 1U), the “C5b-9 Mean” value was determined as 917 ng/mL and the “C3a Mean” value is 1350 ng/mL. Also, in the experiment with complement (C3a, C5b-9) (setting [3]), the “C3a” value is 1250 ng/mL and 1450 ng/mL; the “C5b-9” value was 890 ng/mL and 943 ng/mL. In addition, in the experiment with complement (C3a, C5b-9) (PPP, water (no activator)), the “C5b-9 Mean” value stood at 26 ng/mL, the “C3a Mean” value was found to be 548 ng/mL and the “C5b-9” value was 26 ng/mL. Further, in the experiment with complement (C3a, C5b-9) (PPP, water (no activator), 1 h 37° C., listed as HIRULOG ®), the “C3a” value was 590 ng/mL and 505 ng/mL. In the experiment on complement (C3a, C5b-9) (PRP, CVF 1U), the “C5b-9 Mean” value is 842 ng/mL, the “C3a Mean” value is recorded as 1650 ng/mL and the “C5b-9” value stood at 842 ng/mL. Further, in the experiment with complement (C3a, C5b-9) (PRP, CVF 1U, listed as HIRULOG ®), the “C3a” value was 1800 ng/mL and 1500 ng/mL. In addition, in the experiment on complement (C3a, C5b-9) (PRP, water (no activator)), the “C5b-9 Mean” value is 126 ng/mL, the “C3a Mean” value stood at 435 ng/mL and the “C5b-9” value turned out to be 126 ng/mL. The “C3a” value in the experiment with complement (C3a, C5b-9) (PRP, water (no activator), 1 h 37° C., listed as HIRULOG ®) is 490 ng/mL and 380 ng/mL.
